Counter-ions that a name gives are not always drawn.
Experiments:
Bcl-2 = Bcl-2 (Homo sapiens (Human), UniProt P10415); test: Bcl-2 competition binding (fluorescence polarization) assay; conditions: fluorescein labeled BH3 peptide 15 nM, Bcl-2 protein 30 nM, 3 hours of incubation at room temperature
How it was run: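 Fluorescence polarization competition of 15 nM labeled 23-mer BH3 peptide with 30 nM purified Bcl-2, in 20 mM Hepes pH 7.0, 50 mM KCl, 5 mM MgCl2, 20 mM Na2MoO4, 0.1 mg/ml bovine gamma globulin, 0.01% NP40. Compounds 20 μM to 2 nM final; mP read after 3 h at room temperature, background-subtracted. IC50 from sigmoidal dose-response fit.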

[1] = tested on: BCL-2-dependent acute lymphoblastic leukemia (ALL) cell line RS4; 11 with G101V mutation; test: In vitro anti-proliferation assay (ATPlite) in RS4; 11 with G101V mutation; format: cell-based; conditions: about 72 hours incubation, medium with 5% FBS or 10% normal human serum, ATPlite luminescence
Protocol: Cell antiproliferation was assayed by PerkinElmer ATPlite™ Luminescence Assay System. Briefly, the various test cancer cell lines were plated at a density of about 1×10^4 cells per well in Costar 96-well plates, and were incubated with different concentrations of compounds for about 72 hours in medium supplemented with 5% FBS or 10% normal human serum (NHS). One lyophilized substrate solution vial was then reconstituted by adding 5 mL of substrate buffer solution, and was agitated gently until the solution was homogeneous. About 50 μL of mammalian cell lysis solution was added to 100 μL of cell suspension per well of a microplate, and the plate was shaken for about five minutes in an orbital shaker at ˜700 rpm. This procedure was used to lyse the cells and to stabilize the ATP. Next, 50 μL substrate solution was added to the wells and microplate was shaken for five minutes in an orbital shaker at ˜700 rpm. Finally, the luminescence was measured by a PerkinElmer TopCount® Microplate Scintillation Counter. Such assays, carried out with a range of doses of test compounds, allowed the determination of the cellular anti-antiproliferative IC50 of the compounds of the present invention.

Bcl-2, sequence (P10415 whole entry): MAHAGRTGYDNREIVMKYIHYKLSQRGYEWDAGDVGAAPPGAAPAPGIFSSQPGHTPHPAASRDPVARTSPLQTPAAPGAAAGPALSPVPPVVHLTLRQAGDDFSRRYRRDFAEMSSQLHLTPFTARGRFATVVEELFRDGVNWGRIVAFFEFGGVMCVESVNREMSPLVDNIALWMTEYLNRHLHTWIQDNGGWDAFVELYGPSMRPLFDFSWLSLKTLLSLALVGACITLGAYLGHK

Row | Compound | IC50 (Bcl-2) [nM] | IC50 [1] [nM] | IC50 ([1]; RS4-11) [nM]
1 | CC(C)Oc1ccccc1[C@@H]1CCCN1C1CC2(CCN(c3ccc(C(=O)NS(=O)(=O)c4ccc(NCC5CCC(C)(O)CC5)c([N+](=O)[O-])c4)c(N4c5cc6cc[nH]c6nc5O[C@@H]5COC[C@H]54)c3)CC2)C1 (stereo partly drawn) [Example 45, N-((4-((((1r,4r)-4-hydroxy-4-methylcyclohexyl)methyl)amino)-3-nitrophenyl)sulfonyl)-4-(2-((S)-2-(2-isopropoxyphenyl)pyrrolidin-1-yl)-7-azaspiro[3.5]nonan-7-yl)-2-((5aR,8aS)-5a,6,8,8a-tetrahydrofuro[3,4-b]pyrrolo[3′,2′:5,6]pyrido[3,2-e][1,4]oxazin-5(1H)-yl)benzamide] | 0.198 | 23.8 | 
2 | CC(C)(C#N)c1ccccc1[C@@H]1CCCN1C1CC2(CCN(c3ccc(C(=O)NS(=O)(=O)c4ccc(NCC5CCOCC5)c([N+](=O)[O-])c4)c(N4c5cc6cc[nH]c6nc5O[C@@H]5COC[C@H]54)c3)CC2)C1 [Example 19, 4-{2-[(2S)-2-[2-(1-cyano-1-methylethyl)phenyl]pyrrolidin-1-yl]-7-azaspiro[3.5]nonan-7-yl}-2-[(11R,15S)-13,16-dioxa-2,4,10-triazatetracyclo[7.7.0.0^{3,7}.0^{11,15}]hexadeca-1(9),2,5,7-tetraen-10-yl]-N-{3-nitro-4-[(oxan-4-ylmethyl)amino]benzenesulfonyl}benzamide hydrochloride] | 0.1 | 71.8 | 
3 | CCc1ccccc1[C@@H]1CCCN1C1CC2(CCN(c3ccc(C(=O)NS(=O)(=O)c4ccc(NCC5CCOCC5)c([N+](=O)[O-])c4)c(N4c5cc6cc[nH]c6nc5O[C@@H]5COC[C@H]54)c3)CC2)C1 [Example 7, 2-[(11R,15S)-13,16-dioxa-2,4,10-triazatetracyclo[7.7.0.0^{3,7}.0^{11,15}]hexadeca-1(9),2,5,7-tetraen-10-yl]-4-{2-[(2S)-2-(2-ethylphenyl)pyrrolidin-1-yl]-7-azaspiro[3.5]nonan-7-yl}-N-{3-nitro-4-[(oxan-4-ylmethyl)amino]benzenesulfonyl}benzamide hydrochloride] | 0.066 | 11.5 | 
4 | Cc1ccccc1[C@H]1COCCN1C1CC2(CCN(c3ccc(C(=O)NS(=O)(=O)c4ccc(NCC5CCOCC5)c([N+](=O)[O-])c4)c(N4c5cc6cc[nH]c6nc5O[C@@H]5COC[C@H]54)c3)CC2)C1 [Example 51, N-((3-nitro-4-(((tetrahydro-2H-pyran-4-yl)methyl)amino)phenyl)sulfonyl)-2-((5aR,8aS)-5a,6,8,8a-tetrahydrofuro[3,4-b]pyrrolo[3′,2′:5,6]pyrido[3,2-e][1,4]oxazin-5(1H)-yl)-4-(2-((S)-3-(o-tolyl)morpholino)-7-azaspiro[3.5]nonan-7-yl)benzamide] | 1.08 |  | 359
5 | C=C(C)c1ccccc1[C@@H]1CCCN1C1CC2(CCN(c3ccc(C(=O)NS(=O)(=O)c4ccc(NCC5CCOCC5)c([N+](=O)[O-])c4)c(N4c5cc6cc[nH]c6nc5O[C@@H]5COC[C@H]54)c3)CC2)C1 [Example 5, 2-[(11R,15S)-13,16-dioxa-2,4,10-triazatetracyclo[7.7.0.0^{3,7}.0^{11,15}]hexadeca-1(9),2,5,7-tetraen-10-yl]-N-{3-nitro-4-[(oxan-4-ylmethyl)amino]benzenesulfonyl}-4-{2-[(2S)-2-[2-(prop-1-en-2-yl)phenyl]pyrrolidin-1-yl]-7-azaspiro[3.5]nonan-7-yl}benzamide hydrochloride] | 0.067 | 9.5 | 
6 | Cc1ccccc1[C@@H]1CCCN1C1CC2(CCN(c3ccc(C(=O)NS(=O)(=O)c4ccc(NCC5CCOCC5)c([N+](=O)[O-])c4)c(N4c5cc6cc[nH]c6nc5O[C@@H]5COC[C@H]54)c3)CC2)C1 [Example 4, 2-[(11R,15S)-13,16-dioxa-2,4,10-triazatetracyclo[7.7.0.0^{3,7}.0^{11,15}]hexadeca-1(9),2,5,7-tetraen-10-yl]-4-{2-[(2S)-2-(2-methylphenyl)pyrrolidin-1-yl]-7-azaspiro[3.5]nonan-7-yl}-N-{3-nitro-4-[(oxan-4-ylmethyl)amino]benzenesulfonyl}benzamide] | 0.183 | 28.3 | 
7 | CC(C)Oc1ccccc1[C@@H]1CCCN1C1CC2(CCN(c3ccc(C(=O)NS(=O)(=O)c4ccc(NCC5CCOCC5)c([N+](=O)[O-])c4)c(N4c5cc6cc[nH]c6nc5O[C@H]5COCC[C@@H]54)c3)CC2)C1 [Example 62, 4-(2-((S)-2-(2-isopropoxyphenyl)pyrrolidin-1-yl)-7-azaspiro[3.5]nonan-7-yl)-N-((3-nitro-4-(((tetrahydro-2H-pyran-4-yl)methyl)amino)phenyl)sulfonyl)-2-((5aS,9aR)-6,7,9,9a-tetrahydro. 1H-pyrano[3,4-b]pyrrolo[3′,2′:5,6]pyrido[3,2-e][1,4]oxazin-5(5aH)-yl)benzamide hydrochloride] | 0.41 | 121 | 
8 | CC(C)Oc1ccccc1[C@@H]1CCCN1C1CC2(CCN(c3ccc(C(=O)NS(=O)(=O)c4ccc(NCC5CCOCC5)c([N+](=O)[O-])c4)c(N4c5cc6cc[nH]c6nc5O[C@@H]5COC[C@@H]54)c3)CC2)C1 [Example 55, 4-(2-((S)-2-(2-isopropoxyphenyl)pyrrolidin-1-yl)-7-azaspiro[3.5]nonan-7-yl)-N-((3-nitro-4-(((tetrahydro-2H-pyran-4-yl)methyl)amino)phenyl)sulfonyl)-2-((5aS,8aS)-5a,6,8,8a-tetrahydrofuro[3,4-b]pyrrolo[3′,2′:5,6]pyrido[3,2-e][1,4]oxazin-5(1H)-yl)benzamide] | 0.608 |  | 392
9 | CC(C)c1ccccc1[C@@H]1CCCN1C1CC2(CCN(c3ccc(C(=O)NS(=O)(=O)c4ccc(NCC5CCOCC5)c([N+](=O)[O-])c4)c(N4c5cc6cc[nH]c6nc5O[C@H]5COC[C@@H]54)c3)CC2)C1 [Example 2, 2-[(11S,15R)-13,16-dioxa-2,4,10-triazatetracyclo[7.7.0.0^[3,7].0^[11,15]]hexadeca-1(9),2,5,7-tetraen-10-yl]-4-[2-[(2S)-2-(2-isopropylphenyl)pyrrolidin-1-yl]-7-azaspiro[3.5]nonan-7-yl]-N-[3-nitro-4-[(oxan-4-ylmethyl)amino]benzenesulfonyl]benzamide] | 0.22 | 66.7 | 
10 | CC(C)(C)c1ccccc1[C@@H]1CCCN1C1CC2(CCN(c3ccc(C(=O)NS(=O)(=O)c4ccc(NCC5CCOCC5)c([N+](=O)[O-])c4)c(N4c5cc6cc[nH]c6nc5O[C@@H]5COC[C@H]54)c3)CC2)C1 [Example 46, 4-{2-[(2S)-2-(2-tert-butylphenyl)pyrrolidin-1-yl]-7-azaspiro[3.5]nonan-7-yl}-2-[(11R,15S)-13,16-dioxa-2,4,10-triazatetracyclo[7.7.0.0^{3,7}.0^{11,15}]hexadeca-1(9),2,5,7-tetraen-10-yl]-N-{3-nitro-4-[(oxan-4-ylmethyl)amino]benzenesulfonyl}benzamide] | 0.398 | 58.2 | 
11 | CO[C@]1(C)CC[C@H](CNc2ccc(S(=O)(=O)NC(=O)c3ccc(N4CCC5(CC4)CC(N4CCC[C@H]4c4ccccc4C(C)C)C5)cc3N3c4cc5cc[nH]c5nc4O[C@@H]4COC[C@H]43)cc2[N+](=O)[O-])CC1 [Example 37, 4-(2-((S)-2-(2-isopropylphenyl)pyrrolidin-1-yl)-7-azaspiro[3.5]nonan-7-yl)-N-((4-((((1s,4s)-4-methoxy-4-methylcyclohexyl)methyl)amino)-3-nitrophenyl)sulfonyl)-2-((5aR,8aS)-5a,6,8,8a-tetrahydrofuro[3,4-b]pyrrolo[3′,2′:5,6]pyrido[3,2-e][1,4]oxazin-5(1H)-yl)benzamide hydrochloride] | 0.358 | 15.2 | 

— US20240166646A1, “1H-PYRROLO[2,3-B]PYRIDINE DERIVATIVES AS BCL-2 INHIBITORS FOR THE TREATMENT OF NEOPLASTIC AND AUTOIMMUNE DISEASES” (Newave Pharmaceutical Inc., priority 2020, published 2024)
